GI50 and TGI data for nine molecules are collected here from PubChem BioAssay (NCI).

Several values for one entry are separate records, joined by “and”; a condition that tells them apart may be missing. Equal values may be shown once.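 Interpolation was linear, between the two tested concentrations surrounding the appropriate level; five concentrations were tested over 48 hours in 96-well plates. At the GI50, growth is halved. At the TGI there is no net growth.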

What all share (experiment): inhibition of tumour cell growth, NCI panel, 48 h
For experiment [1], the system named is MDA-MB-231 breast.
The subject of experiment [2] is SK-MEL-5 melanoma.
Experiment [3] deals with HOP-62 NSCLC.
The subject of experiment [4] is SK-OV-3 ovarian.
In experiment [5] the test system is HCC-2998 colon.
Experiment [6] relates to CCRF-CEM leukemia.
Experiment [7] concerns ACHN renal.
The test system of experiment [8] is SNB-19 CNS.
The subject of experiment [9] is EKVX NSCLC.
In experiment [10] the test system is SR leukemia.

As to `O=C(O)CN(CCN(CC(=O)O)CC(=O)O)CCN(CC(=O)O)CC(=O)O`, the GI50 in experiment [1] is 10.5 µM; in experiment [2], 2.92 µM; in experiment [3], 1.98 µM; in [4], 3.19 µM; in experiment [5] it was 4.42 µM; in [6], 3.18 µM. For the same molecule, the GI50 in experiment [7] was 2.59 µM; in experiment [8], 5.18 µM; in experiment [9], 3.26 µM. Further, the TGI is 87.6 µM in [1]; 9.07 µM in experiment [2]; 5.07 µM in [3]; 8.62 µM in experiment [4]; 27 µM in [5]; over 100 µM in [6]. The TGI in experiment [7] came out at 13.6 µM; in [8], 61.6 µM; in experiment [9] it was 9.91 µM.
Take `O=c1cc(-c2cccc(Cl)c2)[nH]c2cc3c(cc12)OCO3`: the TGI in experiment [1] is 11.5 µM; in experiment [10] it was 54.7 µM; in [3] it was 2.85 µM; in [4], 3.05 µM; in [5], 4.97 µM; in [6], 75 µM and 22.6 µM. Moreover, the TGI in experiment [7] is 75 µM and 90.9 µM; in experiment [8], 75 µM and 10.2 µM. In addition, the GI50 in [2] was 0.164 µM; in [7] it was 0.565 µM; in experiment [8] it was 0.363 µM.
As for `CCCCCOC(=O)c1c(C)[nH]c(/C=C2\N=C(c3ccc[nH]3)C=C2OC)c1C`, the GI50 in [1] is under 0.0162 µM; in experiment [2], 0.0234 µM; in experiment [10] it was under 0.0107 µM; in [3] it was 0.0436 µM; in experiment [4], 0.209 µM; in experiment [5], 0.0285 µM. Moreover, the GI50 was 0.0194 µM in experiment [6], 0.0396 µM in [7] and 0.317 µM in experiment [8]. The TGI was found to be 0.216 µM in experiment [1]; 0.0726 µM in experiment [2]; 0.0403 µM in [10]; 0.937 µM in experiment [3]; 2.38 µM in experiment [4]; 1.39 µM in experiment [5]. For the same molecule, the TGI worked out at 1.99 µM in [6], 1.21 µM in [7] and 8.4 µM in experiment [8].
With `COc1ccc(CC(C)NCC(O)c2ccc(O)c(NC=O)c2)cc1` (stereo not given), the TGI in experiment [1], in [2], in [10], in experiment [3], in experiment [4] and in experiment [6] was over 100 µM in each case. Further, the TGI in experiment [7], in [8] and in [9] was over 100 µM in each case.
Regarding `COc1ccc2c(c1[N+](=O)[O-])CC[C@@H]1[C@@H]2CC[C@]2(C)C(=O)CC[C@@H]12`, the GI50 in experiment [1] is 400 µM; in [2], 502 µM; in [10], over 25 µM; in [3], 322 µM; in experiment [4] it was 413 µM; in experiment [5] it was over 25 µM. Also, the GI50 in experiment [6] was over 1000 µM; in experiment [7] it was 424 µM; in experiment [8], 457 µM; in [9], over 580 µM. Moreover, the TGI in experiment [1] is over 905 µM; in experiment [2] it was over 1000 µM; in experiment [10], over 1000 µM; in experiment [3], > 6.71 µM and 639 µM; in [5], over 1000 µM; in experiment [7] it was over 1000 µM. For the same molecule, the TGI in experiment [9] is over 1000 µM.
On to `N#Cc1cnc2ccc(NCc3cnc[nH]3)cc2c1Nc1ccc(F)c(Cl)c1`, for which the GI50 is 17 µM in [1]; 19 µM in experiment [2]; 5.65 µM in [10]; 10.5 µM in experiment [3]; 4.2 µM in [4]; over 100 µM in [5]. The GI50 in [7] was 2.88 µM; in experiment [8], 27 µM. In addition, the TGI in [1], in experiment [2], in experiment [10], in [3], in experiment [4] and in experiment [5] was over 100 µM throughout. For the same molecule, the TGI in experiment [7] and in experiment [8] was over 100 µM throughout.
Turning to `CC[C@@H]1C(=O)N(C)c2cnc(Nc3ccc(C(=O)NC4CCC(N5CCN(CC6CC6)CC5)CC4)cc3OC)nc2N1C(C)C` (stereo not given in full), the GI50 in [1] is 0.0186 µM and 0.0304 µM; in [2], 0.0409 µM and 0.0472 µM; in [10] it was 0.0134 µM and 0.0123 µM; in experiment [3] it was 0.0208 µM and 0.034 µM; in experiment [4], 0.046 µM and 0.0354 µM; in [5], 0.0289 µM and 0.0374 µM. Moreover, the GI50 in experiment [6] was 0.00974 µM and < 0.01 µM; in experiment [7], 0.305 µM and 0.222 µM; in [8], 0.0356 µM and 0.0566 µM; in experiment [9], 0.0749 µM and 0.234 µM. In addition, the TGI in experiment [1] is > 4.6 µM and 7.06 µM; in experiment [2], 0.517 µM and 0.654 µM; in experiment [10], 1.32 µM and 1.51 µM; in experiment [3], > 8.64 µM and 3.93 µM; in experiment [4] it was 1.37 µM and 0.904 µM; in experiment [5], > 4.12 µM and 2.83 µM. For the same molecule, the TGI in experiment [6] was > 7.37 µM and 4.22 µM; in [7], > 10 µM and 13.6 µM; in [8], > 10 µM and 18 µM; in experiment [9] it was > 10 µM and 21.6 µM.
For `N#Cc1nc2cc(Cl)c(Cl)cc2nc1-c1ccc(Cl)cc1`, the GI50 in experiment [1] is 22.3 µM; in [2], 44.3 µM; in [10] it was 22 µM; in [3], 21 µM; in [4], over 48.3 µM; in [5] it was 0.165 µM. Moreover, the GI50 was 8.61 µM in [6], 20 µM in experiment [7], over 43.4 µM in experiment [8] and over 100 µM in experiment [9]. The TGI is over 73.4 µM in experiment [1]; over 100 µM in experiment [2]; 53.1 µM in experiment [10]; 41.6 µM in [3]; over 80.5 µM in experiment [4]; 18.2 µM in [5]. Moreover, the TGI is 25.7 µM in experiment [6], 47.6 µM in experiment [7], over 60.6 µM in experiment [8] and over 100 µM in [9].
In the case of `CN1CCN(c2cc(F)c(NC3=C(Cl)C(=O)c4ncccc4C3=O)c(F)c2)CC1`, the GI50 in [1] is 1.94 µM; in [2], 1.66 µM; in [3], 2.06 µM; in experiment [4], 14.7 µM; in experiment [5], 1.84 µM; in experiment [7] it was 1.53 µM. The GI50 in [8] was 1.94 µM; in [9] it was 1.7 µM. Moreover, the TGI in experiment [1] was 3.87 µM; in experiment [2] it was 3.13 µM; in experiment [3] it was 5.18 µM; in experiment [4], 28.2 µM; in experiment [5] it was 3.55 µM; in [7] it was 2.9 µM. For the same molecule, the TGI in experiment [8] was found to be 3.9 µM; in experiment [9] it was 3.19 µM.
